Measurements from patent US6902933B2, “Surface transfection and expression procedure” (Regents of the University of Michigan, priority 2000, dated 2005).

Key:
Format in all cases: cell-based
[1] = test system: cyclic AMP responsive promoter (pCRE-d2EGFP) in HEK-293T cells; test: STEP D1 activation experiment, control vector pCMV.Neo with pCRE-d2EGFP reporter; settings: HEK-293T cells transfected with control vector CMV.Neo and pCRE-d2EGFP; 48 hours; GFP fluorescence, MCID image analysis
Description: (§1) The purpose of the experiment was to measure activation of the D1 dopamine receptor by a D1 receptor agonist, Chloro-APB (C1-APB). Activation of the D1 receptor by C1-APB could be measured by virtue of it's coupling to adenylate cyclase and subsequent generation of cyclic AMP, as indicated by the pathway shown in FIG. 3.
(§2) Three hundred nanograms of pCMV.D1 (or control vector pCMV.Neo) and 300 ng of pCRE-d2EGFP in 10 microliters were mixed with 10 microliters of transferrin-polylysine complex (1 mg/ml). After 10 minutes, 10 microliters of lipofectamine (1 mg/ml) were added and the mixture incubated for an addition 10 minutes. Spots of approximately 100 nanoliters were placed onto four different polylysine coated microscope slides, and the spots allowed to dry under ambient room conditions. HEK-293T cells were then plated onto three slides, while one slide was grown only in media containing serum. The three slides plated with cells were grown in the presence of either C1-APB or the phosphodiesterase inhibitor IBMX or both C1-APB and IBMX.
(§3) After 48 hours, the cells were examined using fluorescence microscopy.

[2] = molecular target: T1, human D1 dopamine receptor (Homo sapiens, UniProt P21728); test: STEP D1 dopamine receptor activation assay with pCRE-d2EGFP reporter; settings: 48 hours, C1-APB 1 micromolar; for Pixels per spot in STEP D1 activation experiment: HEK-293T cells transfected with CMV.D1 and pCRE-d2EGFP, GFP fluorescence, MCID image analysis
T1 construct: expressed in transfected cells; host or cells: HEK-293T
T1 sequence (P21728 whole entry): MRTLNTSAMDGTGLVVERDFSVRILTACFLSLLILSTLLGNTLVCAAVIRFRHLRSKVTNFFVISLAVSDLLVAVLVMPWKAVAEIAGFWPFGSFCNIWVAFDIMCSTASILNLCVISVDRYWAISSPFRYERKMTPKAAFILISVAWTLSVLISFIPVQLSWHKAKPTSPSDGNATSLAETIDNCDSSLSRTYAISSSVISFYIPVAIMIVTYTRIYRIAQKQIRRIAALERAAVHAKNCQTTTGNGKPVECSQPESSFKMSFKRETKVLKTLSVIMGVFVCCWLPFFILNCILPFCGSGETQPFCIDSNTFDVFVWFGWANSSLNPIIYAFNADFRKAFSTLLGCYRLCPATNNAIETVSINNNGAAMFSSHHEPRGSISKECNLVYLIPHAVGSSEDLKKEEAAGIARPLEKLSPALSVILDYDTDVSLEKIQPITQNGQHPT
Description: as §1
as §2, with “HEK-293T cells were then plated onto three slides, while one slide was grown only in media containing serum.” left out
as §3

[3] = test system: tetracycline responsive element; test: Transactivation assay using a tetracycline inducible system (pBi-EGFP) after STEP transfection; settings: HEK TetOn cells; 10 mg/ml of doxycycline; 48 hours after plating
Description: To determine whether STEP transfection could be modified to generate inducible expression of a protein, the tetracycline inducible system developed by Bujard and coworkers was employed (Baron et al. (2000) Proc Natl Acad Sci USA 96:1013-1018). […] Two DNA complexes were prepared for these experiments, one containing the pBi-EGFP plasmid (Clontech) directing the expression of EGFP under the control of a tetracycline responsive element and another complex containing pEGFP-C1 plasmid DNA (Clontech) with EGFP expression under the control of the strong human cytomegalovirus early promoter. Spots for each of these complexes were applied next to each other on each of two different microscope slides and HEK TetOn cells were plated onto each slide in separate 10 cm culture dishes. Twenty-four hours after transfection, one plate was incubated in DMEM and 10% FCS while the other was incubated in the same media containing 10 mg/ml of doxycycline. Fluorescence photomicrographs were prepared 48 hours after plating of the cells. […] In the absence of doxycycline, none of the cells on the pBiEGFP spot were fluorescent while approximately 30% of the cells on the pEGFP-C1 spot were fluorescent.

[4] = molecular target: T2, human MC1R (Homo sapiens, UniProt Q01726); test: Dose response of melanocortin receptor 1 agonists, pCRE-Luciferase reporter, 96 well STEP; settings: increasing concentrations, 6 hours; HEK-239T cells; FIG. 8
T2 construct: expressed in transfected cells; host or cells: HEK-293T
T2 sequence (Q01726 whole entry): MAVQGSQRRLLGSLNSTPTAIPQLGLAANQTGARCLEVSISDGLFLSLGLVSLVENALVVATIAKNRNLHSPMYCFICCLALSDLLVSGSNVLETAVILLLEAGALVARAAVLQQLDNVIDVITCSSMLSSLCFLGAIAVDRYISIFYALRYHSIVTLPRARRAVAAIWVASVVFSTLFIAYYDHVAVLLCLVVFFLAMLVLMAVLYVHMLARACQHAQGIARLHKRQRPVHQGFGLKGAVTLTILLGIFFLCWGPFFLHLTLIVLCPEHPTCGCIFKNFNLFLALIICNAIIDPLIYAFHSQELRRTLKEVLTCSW
Description: In the following examples a polylysine coated 96 well plate was used. DNA transfection complexes were generated essentially as described in Example 1. The components a-d from Example 1 were added sequentially but without the 5 min. incubation. The DNA transfection complexes were applied by direct pipetting (complexes can also be applied by automated liquid handling systems) to the bottom of each well in a total volume of 20 μl, and the spots were allowed to dry under ambient conditions until completely dry. HEK-293T cells were prepared as in Example 1.200 μl of media containing 10^4 HEK-293T cells were added to each well. When using the expression vector pZsGreen-N1 (Clontech BD), which encodes a variant of wild-type Zoanthus sp. green fluorescent protein ZsGreen; (excitation maximum=496 nm; emission maximum=506 nm. Ref: Matz, M. V., et al. (1999) Nature Biotech. 17:969-973), the cells were visualized using fluorescent microscopy after 24 and 48 hours following transfections.
DNA complexes were formed with human MC1R cDNA (GenBank Accession No. X67594) and with either pCRE-Luciferase or the control plasmid pTal-Luciferase (lacking the CRE binding sequences). The complexes were applied to the surface of individual wells of a polylysine coated 96 well plate; after complete drying, HEK-239T cells were then added. […]

[5] = test system: rat PC-12 pheochromocytoma; test: STEP transfection efficiency with different cell surface ligands in the transfection complex; settings: PC-12 cells; ligand in the transfection complex; GFP fluorescence; penton protein 0.64 mg/ml
Description: In the following experiments, transfection complexes were formed as described in Example 1, except that in the preparation of some transfection complexes, purified penton protein was used instead of transferring the penton protein was used at a concentration of 0.64 mg/ml. Transfection complexes were thus prepared with either transferrin or penton protein. After immobilizing the complexes as described in Example 1, the cell lines rat PC-12 pheochromocytoma and HEK-293T were transfected as described in Example 1.
The results are shown in FIG. 4 as sets of images; the cell line is indicated at the top of the images, and the ligand used in the transfection complex is indicated to the right of the images. The images under each indicated cell line are either brightfield images (to the left) or fluorescence images (to the right).

Compound: C=CCN1CCc2c(cc(O)c(O)c2Cl)C(c2ccccc2)C1 (stereo not drawn) [Cl-APB, Chloro-APB]
- Pixels per spot in STEP D1 activation experiment [1]: 46 + 38 pixels per spot
- Pixels per spot in STEP D1 activation experiment [2]: 447 + 38 pixels per spot
- expression of the green fluorescent protein reporter ([2]; cells expressing the D1 receptor, fluorescence microscopy): significantly greater expression

Compound: CC(C)Cn1c(=O)n(C)c(=O)c2[nH]cnc21 [UBMX, IBMX]
- Pixels per spot in STEP D1 activation experiment [1]: 65 + 32 pixels per spot
- Pixels per spot in STEP D1 activation experiment [2]: 165 + 35 pixels per spot

Compound: C[C@H]1c2cccc(O)c2C(=O)C2=C(O)[C@]3(O)C(=O)C(C(N)=O)=C(O)[C@@H](N(C)C)[C@@H]3[C@@H](O)[C@@H]21 [doxycycline]
- cells on the pBi-EGFP spot with detectable GFP expression [3]: 20%

Compound: N-acetyl-[Cys^4,10,D-Phe^7]-αMSH
- luciferase activity, dose response curve of the MC1R [4]: signal is well above background

Compound: transferrin: ligand for a receptor which is endocytosed, used as complexing agent in the transfection complex
- transfection efficiency [5]: less than 10%

Compound: αMSH
- luciferase activity, dose response curve of the MC1R [4]: signal is well above background
